Molecules are shown by their SMILES.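 Following 48 hours of exposure in 96-well plates, responses at five concentrations were used to interpolate endpoints linearly. The concentration for 50% growth inhibition is given as GI50.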 Active and inactive are the calls of the source. Cut-off read from the data, not from the text of the source: active = GI50 up to about 1.1 µM and inactive = higher.

Experiment in all cases: NCI tumour cell line growth inhibition, 48 h
In test [1] the test system is MOLT-4.
Test [2] relates to SNB-19.
Test [3] deals with UACC-62.
The test system of test [4] is OVCAR-8.
Test [5] relates to CCRF-CEM.
Test [6] has as its system CAKI-1.
Test [7] deals with PC-3.
The test system of test [8] is NCI-H522.
The test system of test [9] is HOP-62.
In test [10] the test system is SF-268.
Test [11] relates to DU-145.
The test system of test [12] is HT-29.
Test [13] relates to SNB-75.
Test [14] concerns SN12C.
The subject of test [15] is Malme-3M.
In test [16] the test system is HL-60.
The test system of test [17] is SK-OV-3.
The test system of test [18] is U-251.
For test [19], the system named is NCI-H23.
Test [20] concerns HCC 2998.

With `Cc1cccc(NC(=O)/C=C/c2ccccc2)c1C`, the GI50 in test [1], in [2], in [3], in test [4], in [5] and in test [6] was > 100 µM (inactive) each time. In addition, the GI50 in test [7] was > 100 µM (inactive); in [8], > 100 µM (inactive); in [9], 85.9 µM (inactive); in test [10], > 100 µM (inactive); in test [11], > 100 µM (inactive); in test [12] it was > 100 µM (inactive). The GI50 in [13] is 77.6 µM (inactive); in [14] it was > 100 µM (inactive); in test [15], > 100 µM (inactive); in [16], > 100 µM (inactive); in test [17], > 100 µM (inactive); in test [18] it was > 100 µM (inactive). For the same molecule, the GI50 in test [19] and in test [20] was > 100 µM (inactive) in each case.

Take `c1ccc2c(c1)CCCN1CCc3ccccc3C21` (stereo not given): the GI50 in [1] is 50.9 µM (inactive); in test [2] it was 92.3 µM (inactive); in test [3], 35.2 µM (inactive); in test [4] it was > 100 µM (inactive); in test [5], 49.1 µM (inactive); in [6], 93.5 µM (inactive). Also, the GI50 in test [7] was 41 µM (inactive); in test [8], > 100 µM (inactive); in [9] it was 50 µM (inactive); in [10], 92 µM (inactive); in test [11] it was > 100 µM (inactive); in test [12], 29 µM (inactive). Moreover, the GI50 in [13] is 98.2 µM (inactive); in test [14], 57 µM (inactive); in test [15], > 100 µM (inactive); in test [16] it was 47.1 µM (inactive); in test [17] it was 66.5 µM (inactive); in test [18], 51.5 µM (inactive). In addition, the GI50 was 48.4 µM (inactive) in test [19] and 44.3 µM (inactive) in test [20].

Regarding `CCC1(c2ccc(N)cc2)CCC(=O)NC1=O` (stereo not given) [AMINOGLUTETHIMIDE], the GI50 in test [1] was 1440 µM (inactive); in test [2], 3350 µM (inactive); in [3], 1820 µM (inactive); in [4], 3270 µM (inactive); in [5], 665 µM (inactive); in test [6], 1460 µM (inactive). The GI50 in test [7] is 1170 µM (inactive); in test [8], 2640 µM (inactive); in test [9], 1050 µM (inactive); in test [10], 2860 µM (inactive); in test [11] it was 3030 µM (inactive); in test [12], 2960 µM (inactive). Further, the GI50 in [13] is 1910 µM (inactive); in test [14] it was 3400 µM (inactive); in [15] it was 2960 µM (inactive); in test [16] it was 1280 µM (inactive); in test [17], 1190 µM (inactive); in [18], 2050 µM (inactive). The GI50 in test [19] was 3240 µM (inactive); in test [20] it was 3680 µM (inactive).

Turning to `CN(CC(=O)N1CC(CCl)c2ccc([N+](=O)[O-])cc21)CC(=O)N1CC(CCl)c2ccc([N+](=O)[O-])cc21` (stereo not given), the GI50 in [1], in test [2], in test [3], in test [4], in test [5] and in test [6] was > 100 µM (inactive) in each case. Further, the GI50 in test [7] is > 100 µM (inactive); in test [8], 7.73 µM (inactive); in test [9], > 100 µM (inactive); in [10], > 100 µM (inactive); in test [11] it was > 100 µM (inactive); in test [12], > 100 µM (inactive). Besides, the GI50 in [13], in test [14], in test [15], in test [16], in [17] and in test [18] was > 100 µM (inactive) in each case. In addition, the GI50 in test [19] and in test [20] was > 100 µM (inactive) in each case.

As for `O=c1n(-c2ccccc2)c(=O)n2n1C1C=CC2CCCCCC1`, the GI50 in [1], in test [2], in test [3], in test [4], in [5] and in test [6] was > 100 µM (inactive) in each case. Also, the GI50 in test [7] was > 100 µM (inactive); in test [8], 22.8 µM (inactive); in [9], > 100 µM (inactive); in [10], > 100 µM (inactive); in test [11], > 100 µM (inactive); in [12], > 100 µM (inactive). Moreover, the GI50 was > 100 µM (inactive) in test [13]; > 100 µM (inactive) in test [14]; > 100 µM (inactive) in test [15]; 29.4 µM (inactive) in test [16]; > 100 µM (inactive) in test [17]; > 100 µM (inactive) in test [18]. For the same molecule, the GI50 in test [19] and in test [20] was > 100 µM (inactive) throughout.

With `NC(=O)N/N=C1\CC2C3CC4C2C4C13` (stereo not given), the GI50 in [1], in [2], in test [3], in test [4], in test [5] and in [6] was > 100 µM (inactive) throughout. Also, the GI50 in test [7], in test [8], in test [9], in test [10], in test [11] and in test [12] was > 100 µM (inactive) each time. Further, the GI50 in test [13], in test [14], in [15], in [16], in test [17] and in test [18] was > 100 µM (inactive) in each case. Moreover, the GI50 in test [19] and in test [20] was > 100 µM (inactive) throughout.

Take `Cc1cccc(C2NC(=O)c3ccccc3N2)c1` (stereo not given): the GI50 was 1.8 µM (inactive) in test [1]; 11 µM (inactive) in test [2]; 6.24 µM (inactive) in test [3]; 6.1 µM (inactive) in test [4]; 3.23 µM (inactive) in test [5]; 8.65 µM (inactive) in [6]. For the same molecule, the GI50 in [7] is 3.95 µM (inactive); in test [8], 3.69 µM (inactive); in test [9] it was 6.03 µM (inactive); in test [10], 11.3 µM (inactive); in test [11] it was 7.96 µM (inactive); in test [12] it was 2.75 µM (inactive). Also, the GI50 is 4.5 µM (inactive) in test [13]; 5.87 µM (inactive) in [14]; 17.7 µM (inactive) in test [15]; 0.802 µM (active) in [16]; 4.4 µM (inactive) in [17]; 4.95 µM (inactive) in test [18]. For the same molecule, the GI50 is 5.11 µM (inactive) in [19] and 6.64 µM (inactive) in test [20].
